Test results: US12673022B2, “Drug delivery system using solution” (Kyoto University, priority 2018, dated 2026)

Tests used:
[1] = system: EGFP reporter cells (C2C12 cells); test: EGFP-SSA assay: uptake of Cas9 protein/gRNA complex into cells (EGFP positive rate); type: cell-based, mouse; conditions: for Compound activity: EGFP positive rate (%): reaction solution 1 (550 mM sodium chloride, 1 mM HEPES, Cas9 protein/gRNA), 30 minutes; for EGFP positive rate: Example 4, compound 250 mM, FIG. 8
[2] = system: EGFP reporter cells (C2C12 cells); test: Number of HOECHST cells detected (cell viability) in the EGFP-SSA assay; conditions: Example 1, formula (2)
Procedure: To each of the solutions, a complex of gRNA and Cas9 protein was further dissolved. Mouse myoblasts (C2C12 cells) were contacted with each of the solutions in vitro, and target gene cleavage activity and cell viability were evaluated.

[3] = system: EGFP reporter cells (C2C12 cells); test: EGFP-SSA assay: uptake of Cas9 protein/gRNA complex into cells (EGFP positive rate); type: cell-based, mouse; conditions: for Compound activity: EGFP positive rate (%): Example 1, compound 250.0 mM, reaction solution 1 (550 mM sodium chloride, 1 mM HEPES, Cas9 protein/gRNA), 30 minutes; for EGFP positive rate (activity) with different (B) salts: Example 3, reaction solutions 3-1 to 3-6: 250 mM GABA, 50 mM HEPES, salt varied, FIG. 7
From the text: EGFP-SSA assay: an abbreviation of EGFP-single strand annealing assay. The reporter cassette shown in FIG. 1 is inserted in EGFP reporter cells. In the middle of the EGFP sequence of the cassette, MmDMD-Ex51 sequence is inserted. Since the presence of MmDMD-Ex51 sequence, by which EGFP ORF is divided, EGFP protein is not usually translated. However, when target sequence of MmDMD-Ex51 is cleaved by Cas9 protein/gRNA complex, the upstream region (EG part) and the downstream region (FP part) of EGFP ORF are annealed via a homology area into a single strand, with the result that a full-length EGFP ORF emerges to produce EGFP protein. Based on this principle, the ratio of the number of cells producing EGFP is checked by the EGFP-SSA assay. In this manner, the amount of Cas9 protein/gRNA complex delivered to cells can be predicted.
(§1) Cas9 protein (0.4 μg), tracrRNA (34.18 ng), MmDmd Ex51 crRNA (29.48 ng), a 1 M HEPES buffer (0.05 μL) and a 5 M aqueous sodium chloride solution (5.5 μL) were mixed and diluted with UltraPure DNase/RNase-Free Distilled Water up to a liquid volume of 37.5 μL so as to obtain final concentrations: 8 ng/μL Cas9 protein, 0.68 ng/μL tracrRNA, 0.59 ng/μL MmDmd Ex51 crRNA, 1 mM HEPES, 550 mM sodium chloride, and 250 mM compound. To this solution, a 1000 mM compound solution (12.5 μL) was added and the solution mixture was incubated at normal temperature for 15 minutes.
as §1, with “buffer (2.5” for “buffer (0.05”, “solution (4.85” for “solution (5.5”, “crRNA, 50” for “crRNA, 1”, “HEPES, 485” for “HEPES, 550”, “minutes. Note that, in the cases where the final concentrations of the compound are 0.69 mM, 25 mM, 100 mM, 125 mM, 160 mM, 200 mM and 500 mM, the compound stock solution was diluted with UltraPure DNase/RNase-Free Distilled Water up to concentrations of 2.76 mM, 100 mM, 400 mM, 500 mM, 640 mM, 800 mM and 2000 mM, respectively, and then, added. […]” for “minutes.”
Cas9 protein (2.0 μg), tracrRNA (170.9 ng), MmDmd Ex51 crRNA (147.4 ng), a 1 M HEPES buffer (12.5 μL), a 5 M aqueous sodium chloride solution (18.35 μL) and a 1 M aqueous GABA solution (62.5 μL) were mixed, diluted with UltraPure DNase/RNase-Free Distilled Water up to a liquid volume of 250 μL so as to obtain final concentrations: 8 ng/μL Cas9 protein, 0.68 ng/μL tracrRNA, 0.59 ng/μL MmDmd Ex51 crRNA, 50 mM HEPES, 250 mM GABA and 367 mM sodium chloride, and incubated at normal temperature for 15 minutes. Note that the addition amount of the 5 M aqueous sodium chloride solution was changed to 24.25 μL in the case of 485 mM sodium chloride and the addition amount was changed to 27.5 μL in the case of 550 mM sodium chloride, respectively.

[4] = compound 500.0 mM vs 250 mM GABA positive control on the same plate
[5] = compound 250.0 mM vs 250 mM GABA positive control on the same plate
[6] = compound 200.0 mM vs 250 mM GABA positive control on the same plate
[7] = compound 125.0 mM vs 250 mM GABA positive control on the same plate

Structure (SMILES): CNC(=O)NC [1,3-Dimethylurea]
- Compound activity: EGFP positive rate (%) ([1]; Example 1, compound 500.0 mM): 2.64%
- Relative ratio to GABA: Number of HOECHST cells [2, 4]: 0.68

Structure (SMILES): Cn1cnc(C[C@H](N)C(=O)O)c1 [1-Methyl-L-histidine]
- Compound activity: EGFP positive rate (%) [3]: 3.54%
- Relative ratio to GABA: Number of HOECHST cells [2, 5]: 0.68

Structure (SMILES): CC(O)CCO (stereo not shown) [1,3-Butylene glycol]
- Compound activity: EGFP positive rate (%) ([1]; Example 1, compound 0.69 mM): 3.62%
- Relative ratio to GABA: Number of HOECHST cells ([2]; compound 0.69 mM vs 250 mM GABA positive control on the same plate): 1.03

Structure (SMILES): O=P(O)(O)O[C@H]1O[C@H](CO)[C@@H](O)[C@H](O)[C@H]1O [α-D-Glucose-1-phosphate]
- Compound activity: EGFP positive rate (%) [3]: 2.52%
- Relative ratio to GABA: Number of HOECHST cells [2, 5]: 1.29

Structure (SMILES): CC(C)C(=O)C(=O)O [Sodium 3-methyl-2-oxobutate]
- Compound activity: EGFP positive rate (%) ([1]; Example 1, compound 200.0 mM): 1.71%
- Relative ratio to GABA: Number of HOECHST cells [2, 6]: 0.53

Structure (SMILES): Nc1cc[nH]c(=O)n1 [Cytosine]
- Compound activity: EGFP positive rate (%) ([1]; Example 1, compound 25.0 mM): 0.61%
- Relative ratio to GABA: Number of HOECHST cells ([2]; compound 25.0 mM vs 250 mM GABA positive control on the same plate): 0.77

Structure (SMILES): OC[C@H]1O[C@@H](O[C@H]2[C@H](O)[C@@H](O)[C@H](O)O[C@@H]2CO)[C@H](O)[C@@H](O)[C@@H]1O [D(+)-cellobiose]
- Compound activity: EGFP positive rate (%) ([1]; Example 1, compound 200.0 mM): 1.18%
- Relative ratio to GABA: Number of HOECHST cells [2, 6]: 1.00

Structure (SMILES): O=c1ccn([C@H]2C[C@H](O)[C@@H](CO)O2)c(=O)[nH]1 [2′-Deoxyuridine]
- Compound activity: EGFP positive rate (%) ([1]; Example 1, compound 100.0 mM): 1.10%
- Relative ratio to GABA: Number of HOECHST cells ([2]; compound 100.0 mM vs 250 mM GABA positive control on the same plate): 0.88

Structure (SMILES): [Cl-].[Na+] [sodium chloride]
- EGFP positive rate (activity) with different (B) salts [3]: almost the same activity

Structure (SMILES): CC(C)(CO)[C@@H](O)C(=O)NCCC(=O)O [Calcium pantothenate]
- Compound activity: EGFP positive rate (%) ([1]; Example 1, compound 160.0 mM): 0.25%
- Relative ratio to GABA: Number of HOECHST cells ([2]; compound 160.0 mM vs 250 mM GABA positive control on the same plate): 1.50

Structure (SMILES): O=C(O)CCC(O)C(=O)O (stereo not shown) [2-Hydroxyglutaric acid]
- Compound activity: EGFP positive rate (%) [3]: 1.89%
- Relative ratio to GABA: Number of HOECHST cells [2, 5]: 0.83

Structure (SMILES): NCCCC(=O)O [GABA, γ-aminobutyric acid, reference compound]
- Compound activity: EGFP positive rate (%) ([1]; Example 1, compound 200.0 mM): 1.39%
- EGFP positive rate ([1]; sodium chloride 150 mM): less than 1%
- EGFP positive rate ([1]; sodium chloride 350 mM): less than 1%
- EGFP positive rate ([3]; Example 4, sodium chloride 550 mM, compound 250 mM, FIG. 8): 1.4%
- Relative ratio to GABA: Number of HOECHST cells [2, 6]: 1.00

Structure (SMILES): CN1CC(=O)NC1=N [Creatinine]
- Relative ratio to GABA: EGFP positive rate (%) ([1]; Example 1, compound 200.0 mM vs 250 mM GABA positive control on the same plate, formula (1)): 2.50
- Compound activity: EGFP positive rate (%) ([1]; Example 1, compound 200.0 mM): 2.27%
- Relative ratio to GABA: Number of HOECHST cells [2, 6]: 0.84

Structure (SMILES): [Cl-].[Cl-].[Mg+2] [magnesium chloride]
- EGFP positive rate (activity) with different (B) salts [3]: almost the same activity

Structure (SMILES): O=C(O)[C@H](O)[C@@H](O)[C@H](O)[C@H](O)COP(=O)(O)O [6-Phospho-D-gluconic acid]
- Compound activity: EGFP positive rate (%) [3]: 2.61%
- Relative ratio to GABA: Number of HOECHST cells [2, 5]: 1.31

Structure (SMILES): O=C(O)[C@@H]1CC(O)CN1 (stereo partly shown) [4-Hydroxyproline]
- Compound activity: EGFP positive rate (%) ([1]; Example 1, compound 500.0 mM): 35.82%
- Relative ratio to GABA: Number of HOECHST cells [2, 4]: 0.62

Structure (SMILES): Nc1ccn([C@@H]2O[C@H](CO)[C@@H](O)[C@H]2O)c(=O)n1 [Cytidine]
- Compound activity: EGFP positive rate (%) ([1]; Example 1, compound 125.0 mM): 2.24%
- Relative ratio to GABA: Number of HOECHST cells [2, 7]: 1.58

Structure (SMILES): OCCN1C[C@H](O)[C@@H](O)[C@H](O)[C@H]1CO [Miglitol]
- Compound activity: EGFP positive rate (%) ([1]; Example 1, compound 125.0 mM): 1.55%
- Relative ratio to GABA: Number of HOECHST cells [2, 7]: 0.83

Structure (SMILES): NCCC(=O)N[C@@H](Cc1cnc[nH]1)C(=O)O [L-Carnosine]
- Compound activity: EGFP positive rate (%) ([1]; Example 1, compound 125.0 mM): 1.76%
- Relative ratio to GABA: Number of HOECHST cells [2, 7]: 0.98
